Each structure is given as a SMILES string.

The subject of one experiment is enriched TICs (HT29). Kind of experiment: Tumourigenicity of enriched TICs (xenograft transplantation). In kind it is in vivo, athymic nude mice. The conditions noted are these: TICs directly treated with S3I-201 50 μM, or S3I-201 5 mg/kg intravenously post injection of TICs. As to the method:
(§1) FIGS. 8a-8f show the suspension survival ability determines tumourigenicity and corresponds to clinical tumour staging and survival. […] FIGS. 8b and 8c show the culture-enriched TICs (SPH) of HT29 and ALDH^+ cells isolated from HCW primary liver metastasis cancer cells and fresh cancer cells were cultured in spheroid condition for 24 hours with treatment of STAT3 inhibitor (S3I-201, 50 μM) or 1:25 dilution of the 0.25 mg/ml anti-Col XVII antibody, followed by TUNEL assay. (Ab-1, Abcam; Ab-2, Pierce). […] FIG. 8e (top), representative pictures of positive staining of colorectal tumour tissues (different stages) are shown, FIG. 8e (bottom), quantification and the correlation between protein expression and tumour stages was subsequently determined. The results are expressed as percentage of DAB positive cells and every single plot represents a patient. The median is shown as a single black line. […] The expression of pS727STAT≧40% or Col XVII 50% was regarded as positive. Asterisks indicate significant differences determined by Fisher's exact test, one-way ANOVA, and log-rank test.
The protocols were approved by the Institutional Animal Committee of Taipei Veterans General Hospital. […] Tumour cells were injected subcutaneously (s.c.) and tumour growth was monitored every week for up to 3 months. […]

Experiment [1] deals with culture-enriched TICs (SPH) of HT29 and ALDH+ cells isolated from HCW primary liver metastasis cancer cells and fresh cancer cells. In words: TUNEL assay of TICs cultured in spheroid (suspension) condition. In kind it is cell-based, human. Particulars: spheroid condition 24 hours; S3I-201 50 μM. The method, then:
as §1, with “test. […]” for “test.”
Detection of apoptosis was performed (Roche Molecular Biochemicals, Indianapolis, Ind.). […] Immunofluorescence is observed with fluorescence microscope.

For `Cc1ccc(S(=O)(=O)OCC(=O)Nc2ccc(C(=O)O)c(O)c2)cc1` [S3I-201], the tumour initiation result in the experiment with enriched TICs (HT29) is given as “inhibited tumour initiation”. For the same molecule, the “killing of TICs in suspension culture (TUNEL assay)” value in experiment [1] was “killed TICs”.

The record behind these values is patent US20170304386A1, “METHOD FOR INHIBITING SURVIVAL, TUMORIGENESIS AND METASTASIS OF CANCER CELLS AND/OR CANCER STEM CELLS” (priority 2014, published 2017).
